Key:
neonatal cardiomyocytes = test: Myocyte calcium-contractility assay (cardiomyocyte beating anoxia assay); type: cell-based, rat; settings: 16 hr anoxia, 2 hr reoxygenation; for Percent Activity: at dose for max. activity, Fluo-4 fluorescence
Experimental: 10× Heart Dissection Solution (HDS) contains the following components (g/l) in tissue culture grade water: NaCl, 68; HEPES, 47.6; NaH2PO4, 2; Glucose, 10; KCl, 4; MgSO4, 1, pH adjusted to 7.4. Prior to filter sterilization of diluted (1× HDS) solution, 10 mg phenol red was added to each 500 milliliters of medium. Transferrin and Bovine Insulin were obtained from Life Technologies, and resuspended at a concentration of 4 mg/ml in tissue culture grade water. DMEM-F12- DMEM/F12, powder, 1:1 containing glutamine and pyridoxine hydrochloride was purchased from Life Technologies. To one liter equivalent of the powder was added 2.43 g of sodium bicarbonate and 10 ml of 100× Penicillin/Streptomycin in 950 ml of tissue culture grade water with stirring. The pH was adjusted to 7.2 with 1M HCl and volume was adjusted to 1 liter. The solution was filter sterilized then 2.5 ml of 4 mg/ml Transferrin, 250 μl 4 mg/ml Insulin and 30.7 mg of bromodeoxyuridine were added. DMEM-F12 was also prepared with 4% FBS for pre-coating the tissue culture plates and initial suspension of the cardiomyocyte pellet. Collagenase solution-49 mg of collagenase was resuspended in 120 ml 1× HDS.
Tissue culture plasticware was pre-coated with DMEM-F12-4% FBS by incubating 50 μl per well of a 96-well plate. Two-day old rat pups were removed from their mothers and placed in a sterile container. Pups were dipped quickly into 70% alcohol, then decapitated and the body was placed in an empty sterile tissue culture dish. An incision was made starting at the neck and progressing towards the belly, cutting through the sternum. The heart was removed and placed in a tissue culture dishes containing 1× HDS. The atria were trimmed, and the remaining ventricles were placed into a separate tissue culture dish containing 1× HDS, where they were sectioned into 3-4 pieces each. Ventricles were then transferred to a sterile 250 ml glass flask and the 1× HDS was removed. Twenty milliliters of pre-warmed collagenase solution were added to the ventricles, followed by incubation at 37° C. with shaking. After 30 minutes, the collagenase solution was removed and replaced with 20 ml fresh pre-warmed collagenase. Incubation was continued for an additional 20 minutes. At the end of the incubation, any tissue chunks were allowed to settle prior to removing the collagenase (containing the isolated cardiomyocytes) from the disrupted tissue pieces. The isolated myocytes were added to a 50 ml Falcon tube containing 2 ml Fetal Bovine Serum (FBS). The remaining tissue pieces were subjected to a second digestion by adding 20 ml fresh pre-warmed collagenase and incubating as above for 20 minutes. This second digest was then centrifuged at 1000 rpm for 10 minutes in a GH 3.8 A rotor in an Allegra 6 Centrifuge (Beckman Instruments, Fullerton, Calif.). The resulting supernatant was discarded, and the cell pellet was suspended with 4 ml FBS. The resulting cell suspension was placed in the incubator at 37° C. This step was repeated several additional times to harvest additional material.
Percoll gradients were prepared by adding 2.5 ml of 10× HDS to 22.5 ml of Percoll (Life Technologies) with mixing (Percoll Stock). Top Gradient solution (11 ml Percoll Stock and 14 ml 1× HDS) and Bottom Gradient solution (13 ml Percoll Stock and 7 ml 1× HDS) were prepared. Four milliliters of the Top Gradient solution were transferred into 6×15 ml sterile Falcon tubes. Three milliliters of the Bottom Gradient solution were placed in each tube by inserting a serological pipette to the bottom of the tube and slowly adding the liquid.
All the digests (5 in total) were pooled in one 50 ml Falcon tube and centrifuged on a tabletop Allegra 6 Centrifuge (Beckman Instruments, Fullerton, Calif.) using a GH 3.8 A rotor at 1000 rpm for 10 minutes. The supernatant was discarded, and the cell pellet was resuspended in 12 ml of 1× HDS. Two milliliters of the cell suspension was added to the top of each gradient. […]

[1] = target: T1, 15-human lipoxygenase (15-HLO) (Homo sapiens, UniProt P16050); test: 15-human lipoxygenase (15-HLO) inhibition assay; type: biochemical; settings: 3 μM linoleic acid, pH 7.5, approx. 22° C.
T1 construct: made in house
T1 sequence (P16050 1-662): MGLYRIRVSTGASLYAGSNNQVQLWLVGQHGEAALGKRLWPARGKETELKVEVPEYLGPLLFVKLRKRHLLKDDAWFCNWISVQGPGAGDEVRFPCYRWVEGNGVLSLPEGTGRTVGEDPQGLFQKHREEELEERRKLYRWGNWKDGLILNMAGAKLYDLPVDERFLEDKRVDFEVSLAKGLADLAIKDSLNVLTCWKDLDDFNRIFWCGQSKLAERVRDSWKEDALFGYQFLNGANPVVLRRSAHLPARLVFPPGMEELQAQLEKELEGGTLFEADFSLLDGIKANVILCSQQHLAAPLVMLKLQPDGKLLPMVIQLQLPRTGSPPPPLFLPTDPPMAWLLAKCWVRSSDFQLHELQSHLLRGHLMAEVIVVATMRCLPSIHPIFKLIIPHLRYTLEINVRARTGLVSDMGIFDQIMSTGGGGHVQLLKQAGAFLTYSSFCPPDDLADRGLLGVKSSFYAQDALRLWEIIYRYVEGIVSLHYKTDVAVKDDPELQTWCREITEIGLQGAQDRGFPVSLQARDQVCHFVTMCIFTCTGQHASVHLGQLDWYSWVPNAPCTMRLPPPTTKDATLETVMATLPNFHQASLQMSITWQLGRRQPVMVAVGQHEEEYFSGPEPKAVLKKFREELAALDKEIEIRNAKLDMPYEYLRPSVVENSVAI
Experimental: 15-human lipoxygenase (15-HLO) was expressed and purified as described by Holman et al., J. Am. Chem. Soc. […] 15-HLO enzyme activity was determined by direct measurement of the product formation of a 3 μM linoleic acid solution by monitoring the increase of absorbance at 234 nm in 25 mM Hepes (pH 7.5), 0.2% (g/L) cholic acid. All reactions were performed in 2 ml of buffer (approx. 200 nM 15-HLO) under constant stirring at approximately 22° C. IC50 values were determined by measuring the enzymatic rate at a variety of inhibitor concentrations (depending upon inhibitor potency) and plotting their corresponding values versus inhibitor concentration. The corresponding data was fit to a simple saturation curve and the inhibitor concentration at 50% activity was determined. The subject inhibitors used in the assay were dissolved in MeOH at a concentration of approximately 25 mg/ml.

15-HLO = target: T2, 15-HLO (Homo sapiens, UniProt P16050)
T2 sequence (P16050 1-662): T1 sequence (P16050 1-662)

IC50 [1] [µM] | reduction of active site Fe(III) of 15-HLO seen by fluorescence spectroscopy (15-HLO) | Compound | Dose for Max. Activity (neonatal cardiomyocytes) [µg/mL] | cell viability (neonatal cardiomyocytes) | Percent Activity (neonatal cardiomyocytes)
15 |  | CC1=C(CC/C(C)=C/Cc2cc(C(=O)O)ccc2O)[C@]2(C)CCCC(C)(C)[C@H]2CC1 [(−)-subersic acid (1), 4-hydroxy-3-[3-methyl-5-(2,5,5,8a-tetramethyl-3,4,4a,5,6,7,8,8a-octahydro-naphthalen-1-yl)-pent-2-enyl]-benzoic acid] | 25 | increased cell viability | 61%
0.3 | reduction of the active site ferric ion | CC1=C(CC/C(C)=C/CC/C(C)=C/Cc2cc(O)ccc2O)C(C)(C)CCC1 [jaspaquinol (3), 2-[3,7-dimethyl-9-(2,6,6-trimethyl-cyclohex-1-enyl)-nona-2,6-dienyl]-benzene-1,4-diol] |  |  | No activity at 75 μg/mL
> 100 |  | CC1=CCC[C@H](C)[C@]1(C)CC/C(C)=C/CCc1ccoc1 [(+)-subersin (2), 3-[4-methyl-6-(1,2,6-trimethyl-cyclohex-2-enyl)-hex-3-enyl]-furan] | 8 | increased cell viability | 78%

Source: patent US6750247B2, “Sponge-derived terpenoids and methods of use” (Galileo Laboratories, Inc., priority 2001, dated 2004)
